Test results taken from patent US9340575B2, “Agonists and antagonists of the urotensinergic system” (INSTITUT NATIONAL DE LA RECHERCHE SCIENTIFIQUE, priority 2011, dated 2016).
Like-named read-outs stand apart in the source and are kept apart here. Square brackets hold non-standard residues; d marks the D form. Peptide text beside a SMILES is read from it. pGlu = O=C1CC[CH](C(=O)O)N1

Assays:
rat thoracic aorta rings [1] = assay: Antagonism of UII- or URP-induced contraction of rat aortic ring; format: cell-based; details: pretreatment 10^−6M, 15 min
Method: Male rats (Sprague-Dawley, 250-300 g) were killed by CO2 asphyxiation. The thoracic aorta was then cleared of surrounding tissues and excised from aortic arch to the diaphragm. From each vessel, conjunctive tissues were removed and the clean vessel was cut into 4 mm rings. The endothelium was removed by gently rubbing the vessel's intimal surface. All preparations were placed in 5 ml organ baths filled with oxygenated normal Krebs-Henselheit solution. Contractile responses to 40 mM KCl were used as control at the beginning and at the end of each experiment. Agonistic activity was measured by increasing the concentration of the peptide in the organ chamber (3×10^−11-3×10^−6 M). For antagonist behaviour, thoracic aortic rings were first exposed to URP derivative over a period of 15 min, and then cumulative concentration-response curves to hUII, URP or ET-1 (10^−10-3×10^−6 M) were constructed. The amplitude of the contraction induced by each concentration of peptide was expressed as a percentage of the KCl-induced contraction. Finally, the ability of the antagonist to reverse the hUII-induced contraction was also evaluated. Vessels were pre-contracted with 4 nM hUII (pre-determined EC80) and after the maximum contraction was attained, contractile tone was reversed by adding increasing log unit concentrations of URP derivative. […] Binding and functional experiments were performed at least in triplicate and data, expressed as mean±S.E.M, were analyzed using the Prism software (Graph Pad Software, San Diego, Calif.). In all experiments, n represents the total number of animals studied or individual assays performed. The EC50, pEC50, pIC50 values as well as the Emax value were determined from the concentration-response curves using a sigmoidal dose-response fit with variable slope. Non-competitive antagonist affinities (pKb) were determined using the method of Gaddum where equiactive concentrations of agonist, in the absence or presence of URP derivative, were compared in a linear regression. The resulting slope was used to calculate the equilibrium constant Kb using the following equation: Kb=[B]/(slope−1); where [B] is the antagonist concentration. The slope is calculated from the double reciprocal plot of equiactive concentrations of agonist in the presence and absence of antagonist.

rat thoracic aorta rings [2] = format: cell-based; details: for Aortic Ring contraction pEC50: endothelium-denuded rat thoracic aorta; for Aortic Ring contraction Emax (%): percentage of contraction induced by KCl (40 mM)
Method: Binding and functional experiments were performed at least in triplicate and data, expressed as mean±S.E.M, were analyzed using the Prism software (Graph Pad Software, San Diego, Calif.). In all experiments, n represents the total number of animals studied or individual assays performed. The EC50, pEC50, pIC50 values as well as the Emax value were determined from the concentration-response curves using a sigmoidal dose-response fit with variable slope. […] The slope is calculated from the double reciprocal plot of equiactive concentrations of agonist in the presence and absence of antagonist.

[3] = biological target: T1, human urotensin II receptor (UT) (Homo sapiens, UniProt Q9UKP6); assay: Competitive radioligand binding on CHO-UT cells
T1 construct: expressed in transfected cells; host or cells: CHO cells (CHO-UT), stably transfected, G418 selection
T1 sequence (Q9UKP6 1-389): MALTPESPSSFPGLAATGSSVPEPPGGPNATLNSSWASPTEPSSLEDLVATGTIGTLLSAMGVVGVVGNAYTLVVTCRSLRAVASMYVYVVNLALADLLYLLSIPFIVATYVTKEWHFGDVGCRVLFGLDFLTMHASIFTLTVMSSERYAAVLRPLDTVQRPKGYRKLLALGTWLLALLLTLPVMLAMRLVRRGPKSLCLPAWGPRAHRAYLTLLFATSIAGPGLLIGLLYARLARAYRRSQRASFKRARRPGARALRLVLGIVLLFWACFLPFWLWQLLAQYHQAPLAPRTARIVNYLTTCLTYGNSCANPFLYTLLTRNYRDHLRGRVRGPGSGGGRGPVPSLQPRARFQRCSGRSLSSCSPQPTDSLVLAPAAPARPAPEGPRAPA
Method: Transfected CHO cells expressing the human urotensin receptor (CHO-UT) were maintained in Ham-F12 medium with 10% fetal bovine serum (FBS), 2 mM L-glutamine, 100 UI/mL each of penicillin and streptomycin, and 400 μg/mL G418. […] Binding assays were following known literature procedures using CHO cells stably transfected with hGPR14. […] After 90 min of incubation at room temperature, cells were washed, lysed, and the cell-bound radioactivity was quantified using a γ-counter. […] The cells were then washed, lysed, and the radioactivity counted on a γ-counter (1470 Automatic Gamma Counter, Perkin Elmer). Binding and functional experiments were performed at least in triplicate and data, expressed as mean±S.E.M, were analyzed using the Prism software (Graph Pad Software, San Diego, Calif.). In all experiments, n represents the total number of animals studied or individual assays performed. The EC50, pEC50, pIC50 values as well as the Emax value were determined from the concentration-response curves using a sigmoidal dose-response fit with variable slope. […] The slope is calculated from the double reciprocal plot of equiactive concentrations of agonist in the presence and absence of antagonist.

anaesthetized rats = assay: Hemodynamic assessment (arterial blood pressure) in anaesthetized rats; format: in vivo, rat
Method: Male Sprague-Dawley rats, weighing 350-400 g, were anaesthetized by isoflurane inhalation delivered in 100% oxygen (1 l/min) from an Ohmeda Tec 4 anaesthetic vaporizer (Somatechnology, Inc., Bloomfield, Conn., USA). Anaesthesia was maintained by mask inhalation of isoflurane vaporized at concentrations of up to 3% in the induction phase, at 1.5% during acute surgical procedures and at 0.8-1.0% during experimental observations. […]. […] A period of stabilisation of 30 min was observed and the following experimental protocols were then performed and arterial blood pressure was evaluated. During isoflurane inhalation, no breathing complications or changes in blood pressure were observed. […].
In a preliminary study, individual rats received a single i.v. injection of hUII ranging from 1 to 30 nmol/kg. A dose-response curve, reflecting the effect of hUII on the change in blood pressure, was then determined.
In this set of experiments, five groups of rats were used. […] […]. Hemodynamic changes were continuously captured by the pressure probe over a period of 1 h. The maximum rise and the maximum drop in blood pressure was determined and analyzed using the PowerLab software (ADInstruments, Colorado Springs, Colo., USA).
In the control group, the rats received two doses of hUII (10 nmol/kg) with a 30 min interval between the first and second injection.

rat thoracic aorta rings [4] = assay: Effect on ET-1-induced contraction of rat aortic ring; format: cell-based; details: without [Bip^4]URP
Method: Male rats (Sprague-Dawley, 250-300 g) were killed by CO2 asphyxiation. The thoracic aorta was then cleared of surrounding tissues and excised from aortic arch to the diaphragm. From each vessel, conjunctive tissues were removed and the clean vessel was cut into 4 mm rings. The endothelium was removed by gently rubbing the vessel's intimal surface. All preparations were placed in 5 ml organ baths filled with oxygenated normal Krebs-Henselheit solution. Contractile responses to 40 mM KCl were used as control at the beginning and at the end of each experiment. Agonistic activity was measured by increasing the concentration of the peptide in the organ chamber (3×10^−11-3×10^−6 M). For antagonist behaviour, thoracic aortic rings were first exposed to URP derivative over a period of 15 min, and then cumulative concentration-response curves to hUII, URP or ET-1 (10^−10-3×10^−6 M) were constructed. The amplitude of the contraction induced by each concentration of peptide was expressed as a percentage of the KCl-induced contraction. Finally, the ability of the antagonist to reverse the hUII-induced contraction was also evaluated. Vessels were pre-contracted with 4 nM hUII (pre-determined EC80) and after the maximum contraction was attained, contractile tone was reversed by adding increasing log unit concentrations of URP derivative.

Row | Binding affinity for UT (in words) [3] | EC50 (rat thoracic aorta rings [2]) | Aortic Ring contraction pEC50 (rat thoracic aorta rings [2]) | Molecule | Agonist behaviour in aortic ring contraction (in words) (rat thoracic aorta rings [2]) | Aortic Ring contraction Emax (%) (rat thoracic aorta rings [2]) | further results
1 |  |  |  | CC(NC(=O)C(NC(=O)CNC(=O)C(Cc1c[nH]cn1)NC(=O)C1CCC(=O)N1)C(C)O)C(=O)N1CCCC1C(=O)NC(CCC(=O)O)C(N)=O (stereo not drawn) [rUII(1-7), Pyr-His-Gly-Thr-Ala-Pro-Glu-NH2] ([pGlu]HGTAPE-NH2; configuration not given here) | unable to induce the contraction of rat aortic rings |  | Effect on URP-associated contraction curve (in words) (rat thoracic aorta rings [1]): significant rightward shift; Effect on rUII-induced contraction (in words) (rat thoracic aorta rings [1]): did not significantly alter
2 | high affinity | 7 nM | 8.09±0.18 | CC(C)[C@H](NC(=O)[C@@H]1CSSC[C@H](NC(=O)[C@H](C)N)C(=O)N[C@@H](Cc2ccccc2)C(=O)N[C@@H](Cc2c[nH]c3ccccc23)C(=O)N[C@@H](CCCCN)C(=O)N[C@@H](Cc2ccc(O)cc2)C(=O)N1)C(=O)O [Compound 2, reference compound] |  | 100±6% | IC50 ([3]; Binding (125I-URP) IC50 (nM), radioligand 125I-URP, recombinant human UT): 31.8 nM; IC50 ([3]; Binding (125I-hUII) IC50 (nM), radioligand 125I-hUII, recombinant human UT): 12.4 nM; Binding (125I-hUII) pIC50 ([3]; radioligand 125I-hUII, recombinant human UT): 7.90 ± 0.11; Hemodynamic response to bolus i.v. injection (anaesthetized rats; 0.01 μmol/kg i.v.): biphasic hemodynamic response; Time of hypotension nadir (anaesthetized rats; 0.01 μmol/kg i.v.): ~6 min; Time of pressor phase peak (anaesthetized rats; 0.01 μmol/kg i.v.): ~1 min; Response to repeated injections (anaesthetized rats; 10 nmol/kg twice, 30 min interval): equivalent biphasic responses; Effect of prior URP injection on hUII hemodynamic response (anaesthetized rats; hUII 30 min after URP bolus, 10 nmol/kg): such observation was not made
3 | high binding affinity | 117 nM | 6.93 ± 0.09 | CC(C)[C@H](NC(=O)[C@@H]1CSSC[C@H](NC(=O)[C@H](C)N)C(=O)N[C@@H](Cc2ccccc2)C(=O)N[C@H](c2ccccc2)C(=O)N[C@@H](CCCCN)C(=O)N[C@@H](Cc2ccc(O)cc2)C(=O)N1)C(=O)O [Compound 15, [D-Phg^4]URP] |  | 116 ± 5% | IC50 ([3]; 125I-hUII 0.2 nM, CHO-UT cells, 95% confidence limits in parentheses, read-out: Binding IC50): 29 nM
4 |  |  |  | endothelin-1 [ET-1, reference compound] |  |  | ET-1 Emax (rat thoracic aorta rings [4]): 119±6; ET-1 pEC50 (rat thoracic aorta rings [4]): 8.06±0.15
5 | high affinity for UT |  |  | CC(C)[C@H](NC(=O)[C@@H]1CSSC[C@H](NC(=O)[C@H](C)N)C(=O)N[C@@H](Cc2ccccc2)C(=O)N2Cc3[nH]c4ccccc4c3C[C@H]2C(=O)N[C@@H](CCCCN)C(=O)N[C@@H](Cc2ccc(O)cc2)C(=O)N1)C(=O)O [Compound 10, H-Ala-Cys-Phe-Tpi-Lys-Tyr-Cys-Val-OH] | vasoconstriction comparable to hUII or URP with however a slightly reduced potency | 139 ± 17% | 
6 | dramatic loss of binding affinity | > 1000 nM | <6 | CC(C)[C@H](NC(=O)[C@@H]1CSSC[C@H](NC(=O)[C@H](C)N)C(=O)N[C@@H](Cc2ccccc2)C(=O)N2Cc3ccccc3C[C@H]2C(=O)N[C@@H](CCCCN)C(=O)N[C@@H](Cc2ccc(O)cc2)C(=O)N1)C(=O)O [Compound 18, H-Ala-Cys-Phe-Tic-Lys-Tyr-Cys-Val-OH] |  |  | Aortic Ring contraction Emax (%), maximum efficacy at 10^−5.5M (rat thoracic aorta rings [2]; percentage of KCl (40 mM) contraction, at 10^−5.5M): 43%
